Where two headings read alike, the source gives them in different places.
Assays:
CDK4/Cyclin D1 = CDK4/Cyclin D1 (Homo sapiens (Human), UniProt P11802); assay: CDK4/CyclinD1 enzymatic activity assay (TR-FRET); assay type: biochemical; settings: CDK4/CyclinD1 1 nM, ATP 2 mM, read-out: CDK4_D1 IC50
Protocol: CDK4/CyclinD1 Enzymatic Activity Assay
(§1) The inhibitory activity of compounds was evaluated in vitro using TR-FRET assay with white 384-well low volume microplate (Greiner Bio-One). CDK4/Cyclin D1 catalyzed phosphorylation of peptide in the presence and absence of compounds was measured. IC50 determination. Recombinant protein complex CDK4/Cyclin D1, expressed from insect cell, was purchased from ProQinase. Testing compounds were dissolved in DMSO at 0.1 mM and tested in 9-dose IC50 mode. The reaction mixture was prepared by mixing CDK4/CyclinD1 (1 nM final), ULight-4E-BP1 (100 nM final, Perkinelmer, TRF0128-D), and ATP (2 mM final) in assay buffer (20 mM of HEPES pH 7.4, 1 mM of EGTA, 0.05% BSA, 0.005% Tween 20, and 1 mM TCEP). The compound of interest in DMSO was added to each well in 3-fold serial dilution by dispenser (TECAN D300E). After 20 minutes preincubation at room temperature, MgCl2 (10 mM final) was added to initiate the reaction. Following a 60 minutes incubation at 37° C., the reaction was stopped by addition of 2 μL of quenching buffer consisting of Lance detection buffer (Perkinelmer CR97-100C), 2 nM LANCE Ultra Europium-anti-P-4E-BP1 (Perkinelmer, TRF0216-D), 10 mM EDTA, and incubate at room temperature for additional 60 minutes in dark. The reaction signal was measured by Envision multimode plate reader (PerkinElmer, 2102-0010). IC50 values were determined by fitting the data to the standard 4 parameters with Hill Slope using GraphPad Prism software.

CDK6/Cyclin D1 = CDK6/Cyclin D1 (Homo sapiens (Human), UniProt Q00534); assay: CDK6/CyclinD1 enzymatic activity assay (TR-FRET); assay type: biochemical; settings: CDK6/Cyclin D1 1 nM, ATP 250 μM, read-out: CDK6_D1 IC50
Protocol: CDK6/CyclinD1 Enzymatic Activity Assay
as §1, with “CDK6/Cyclin” for “CDK4/Cyclin”, “measured and used in” for “measured.”, “CDK6/Cyclin D1” for “CDK4/CyclinD1”, “(250 μM” for “(2 mM”, “temperature, 0.1 μL” for “temperature,”

[1] = tested on: MCF7 adenocarcinoma cell line; assay: Cell proliferation studies in MCF7 cells (ATP-Lite); assay type: cell-based; settings: 10 days incubation, cell viability by ATP-Lite luminescence, read-out: PROLIFERATION_CTG_MCF7 IC50
Protocol: Cell Proliferation Studies in MCF7 Cells
Cell proliferation studies were conducted in MCF7 adenocarcinoma cell line. Cells were maintained in DMEM (Corning, Catalog #: 10-013-CV) supplemented with 10% v/v FBS (Gibco, Catalog #: 26140-079), 1% v/v Penicillin Streptomycin (Gibco, Catalog #15140-122) Cells were seeded in 384-well plates at a density of 100 or 200 cells/well. Compounds dissolved in DMSO were plated in quadruplicate using a digital dispenser (D300E, Tecan) and tested on a 9-point 3-fold serial dilution. Cells were incubated for 10 days in a 37° C. active humidified incubator at 5% CO2. A media exchange and second compound addition were performed on day 5. Cell viability was measured using the ATP-Lite 1-Step Luminescence reagent (Perkin Elmer, Catalog #: 6016731) as per manufacturer's instructions. Luminescence signal was measured with a multimode plate reader (Envision 2105, Perkin Elmer). Raw data files were imported to Dotmatics Screening Ultra for IC50 analysis. Luminescence values were normalized to both background and DMSO controls to obtain a percentage of viable cells relative to DMSO vehicle control.

CDK4/Cyclin D1, sequence (P11802 whole entry): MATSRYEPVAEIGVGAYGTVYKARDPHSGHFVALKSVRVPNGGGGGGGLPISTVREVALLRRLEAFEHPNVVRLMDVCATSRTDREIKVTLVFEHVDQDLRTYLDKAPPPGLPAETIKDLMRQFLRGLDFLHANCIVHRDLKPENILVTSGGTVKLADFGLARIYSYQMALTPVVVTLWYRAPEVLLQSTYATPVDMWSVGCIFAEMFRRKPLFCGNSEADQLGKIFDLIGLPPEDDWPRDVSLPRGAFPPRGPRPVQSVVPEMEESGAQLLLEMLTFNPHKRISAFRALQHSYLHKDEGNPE
CDK4/Cyclin D1, sequence (P24385 whole entry partner): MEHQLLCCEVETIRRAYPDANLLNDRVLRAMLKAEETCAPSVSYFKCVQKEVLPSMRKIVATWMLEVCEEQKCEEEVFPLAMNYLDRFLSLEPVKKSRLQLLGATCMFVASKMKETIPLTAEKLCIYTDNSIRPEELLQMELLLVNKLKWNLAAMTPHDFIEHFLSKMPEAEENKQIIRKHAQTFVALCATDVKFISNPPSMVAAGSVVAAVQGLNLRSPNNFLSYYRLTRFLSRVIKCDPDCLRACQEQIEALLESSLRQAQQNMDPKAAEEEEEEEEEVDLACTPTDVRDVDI
CDK6/Cyclin D1, sequence (Q00534 whole entry): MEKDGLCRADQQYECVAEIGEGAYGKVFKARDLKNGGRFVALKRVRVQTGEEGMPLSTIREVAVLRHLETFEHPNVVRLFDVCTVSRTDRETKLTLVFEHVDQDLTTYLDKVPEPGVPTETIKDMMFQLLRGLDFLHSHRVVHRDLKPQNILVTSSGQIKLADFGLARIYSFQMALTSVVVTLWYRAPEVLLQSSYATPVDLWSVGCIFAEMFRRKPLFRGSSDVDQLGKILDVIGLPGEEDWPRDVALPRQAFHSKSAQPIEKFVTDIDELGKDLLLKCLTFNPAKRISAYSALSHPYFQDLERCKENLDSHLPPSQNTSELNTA
CDK6/Cyclin D1, sequence (P24385 whole entry partner): as the sequence (P24385 whole entry partner) above

| Compound | IC50 (CDK4/Cyclin D1) [nM] | IC50 (CDK6/Cyclin D1) [nM] | IC50 ([1]; Homo sapiens, 240 h) [nM] | IC50 [1] [nM] |
| --- | --- | --- | --- | --- |
| CN1CCC(c2ccc(Nc3ncc(F)c(-c4cc5c(s4)C4(CCCCC4)CN(C)C5=O)n3)nc2)CC1 [Example 5, 2′-(5-Fluoro-2-((5-(1-methylpiperidin-4-yl)pyridin-2-yl)amino)pyrimidin-4-yl)-5′-methyl-5′,6′-dihydro-4′H-spiro[cyclohexane-1,7′-thieno[3,2-c]pyridin]-4′-one] | ≤ 20 | 20 to 200 | ≤ 20 |  |
| CN1CCC(c2ccc(Nc3ncc(F)c(-c4cc5c(s4)C4(CC4)N(C)C5=O)n3)nc2)CC1 [Example 8] | ≤ 20 | ≤ 20 |  | 20 to 200 |
| CN1CCC(c2ccc(Nc3ncc(F)c(-c4sc5c(c4Cl)C(=O)N(C)C54CC4)n3)nc2)CC1 [Example 9, 3′-chloro-2′-(5-Fluoro-2-((5-(1-methylpiperidin-4-yl)pyridin-2-yl)amino)pyrimidin-4-yl)-5′-methylspiro[cyclopropane-1,6′-thieno[2,3-c]pyrrol]-4′(5′H)-one] | ≤ 20 | ≤ 20 | 20 to 200 |  |
| CN1CCC(c2ccc(Nc3ncc(F)c(-c4sc5c(c4C(F)(F)F)C(=O)N(C)C54CC4)n3)nc2)CC1 [Example 10, 2′-(5-Fluoro-2-((5-(1-methyl-piperidin-4-yl)pyridin-2-yl)amino)pyrimidin-4-yl)-5′-methyl-3′-(trifluoromethyl)spiro[cyclopropane-1,6′-thieno[2,3-c]pyrrol]-4′(5′H)-one] | ≤ 20 | ≤ 20 | 20 to 200 |  |
| CCN1CCN(Cc2ccc(Nc3ncc(F)c(-c4sc5c(c4C)C(=O)N(C)C54CC4)n3)nc2)CC1 [Example 13, 2′-(2-((5-((4-Ethylpiperazin-1-yl)methyl)pyridin-2-yl)amino)-5-fluoropyrimidin-4-yl)-3′,5′-dimethylspiro[cyclopropane-1,6′-thieno[2,3-c]pyrrol]-4′(5′H)-one] | ≤ 20 | ≤ 20 | 20 to 200 |  |
| CCN1CC2(C1)CN(c1ccc(Nc3ncc(F)c(-c4cc5c(s4)C4(CCCC4)N(CC)C5=O)n3)nc1)C2 [Example 21, 5′-Ethyl-2′-(2-((5-(6-ethyl-2,6-diazaspiro[3.3]heptan-2-yl)pyridin-2-yl)amino)-5-fluoropyrimidin-4-yl)spiro[cyclopentane-1,6′-thieno[2,3-c]pyrrol]-4′(5′H)-one] | ≤ 20 | ≤ 20 | 20 to 200 |  |
| CCN1C(=O)c2cc(-c3nc(Nc4ccc(C5CCN(C)CC5)cn4)ncc3F)sc2C12CCCC2 [Example 22, 5′-Ethyl-2′-(5-fluoro-2-((5-(1-methylpiperidin-4-yl)pyridin-2-yl)amino)pyrimidin-4-yl)spiro[cyclopentane-1,6′-thieno[2,3-c]pyrrol]-4′(5′H)-one] | ≤ 20 | 20 to 200 | 20 to 200 |  |

Other lines, results leading:

| IC50 (CDK4/Cyclin D1) [nM] | IC50 (CDK6/Cyclin D1) [nM] | IC50 ([1]; Homo sapiens, 240 h) [nM] | IC50 [1] [nM] | Compound |
| --- | --- | --- | --- | --- |
| ≤ 20 | ≤ 20 | 20 to 200 |  | CCN1CCC(c2ccc(Nc3ncc(F)c(-c4cc5c(s4)C4(CCCC4)N(C)C5=O)n3)nc2)CC1 [Example 23, 2′-(2-((5-(1-Ethylpiperidin-4-yl)pyridin-2-yl)amino)-5-fluoropyrimidin-4-yl)-5′-methylspiro[cyclopentane-1,6′-thieno[2,3-c]pyrrol]-4′(5′H)-one] |
| ≤ 20 | ≤ 20 | ≤ 20 |  | CN1CCC(c2ccc(Nc3ncc(F)c(-c4sc5c(c4C(F)(F)F)C(=O)N(C)C54CCCC4)n3)nc2)CC1 [Example 26, 2′-(5-Fluoro-2-((5-(1-methylpiperidin-4-yl)pyridin-2-yl)amino)pyrimidin-4-yl)-5′-methyl-3′-(trifluoromethyl)spiro[cyclopentane-1,6′-thieno[2,3-c]pyrrol]-4′(5′H)-one] |
| ≤ 20 | ≤ 20 | ≤ 20 |  | CN1CCC(c2ccc(Nc3ncc(F)c(-c4sc5c(c4Cl)C(=O)N(C)C54CCCC4)n3)nc2)CC1 [Example 27, 3′-Chloro-2′-(5-fluoro-2-((5-(1-methylpiperidin-4-yl)pyridin-2-yl)amino)pyrimidin-4-yl)-5′-methylspiro[cyclopentane-1,6′-thieno[2,3-c]pyrrol]-4′(5′H)-one] |
| ≤ 20 | ≤ 20 | 20 to 200 |  | Cc1c(-c2nc(Nc3ccc(C4CCCN(C)C4)cn3)ncc2F)sc2c1C(=O)N(C)CC21CC1 (stereo not shown) [Example 30, 2′-(5-Fluoro-2-((5-(1-methyl-piperidin-3-yl)pyridin-2-yl)amino)pyrimidin-4-yl)-3′,5′-dimethyl-5′,6′-dihydro-4′H-spiro[cyclopropane-1,7′-thieno[3,2-c]pyridin]-4′-one] |
| ≤ 20 | ≤ 20 | 20 to 200 |  | Cc1c(-c2nc(Nc3ccc(C4CCN(C5CCOC5)CC4)cn3)ncc2F)sc2c1C(=O)N(C)CC21CC1 (stereo not shown) [Example 32, 2′-(5-Fluoro-2-((5-(1-(tetrahydrofuran-3-yl)piperidin-4-yl)pyridin-2-yl)amino)pyrimidin-4-yl)-3′,5′-dimethyl-5′,6′-dihydro-4′H-spiro[cyclopropane-1,7′-thieno[3,2-c]pyridin]-4′-one] |
| ≤ 20 | ≤ 20 | ≤ 20 |  | Cc1c(-c2nc(Nc3ccc(N4CC5(C4)CN(C(C)C)C5)cn3)ncc2F)sc2c1C(=O)N(C)CC21CC1 [Example 34, 2′-(5-Fluoro-2-((5-(6-isopropyl-2,6-diazaspiro[3.3]heptan-2-yl)pyridin-2-yl)amino)pyrimidin-4-yl)-3′,5′-dimethyl-5′,6′-dihydro-4′H-spiro[cyclopropane-1,7′-thieno[3,2-c]pyridin]-4′-one] |
| ≤ 20 | ≤ 20 | 20 to 200 |  | Cc1c(-c2nc(Nc3ccc(N4CCC5(CC4)CN(C)C5)cn3)ncc2F)sc2c1C(=O)N(C)CC21CC1 [Example 36, 2′-(5-Fluoro-2-((5-(2-methyl-2,7-diazaspiro[3.5]nonan-7-yl)pyridin-2-yl)amino)pyrimidin-4-yl)-3′,5′-dimethyl-5′,6′-dihydro-4′H-spiro[cyclopropane-1,7′-thieno[3,2-c]pyridin]-4′-one] |
| ≤ 20 |  | 20 to 200 |  | CN1CC2(CCCC2)c2sc(-c3nc(Nc4ccc(N5CCN6CCC5CC6)cn4)ncc3F)cc2C1=O [Example 64, 2-[2-[[5-(1,4-Diazabicyclo[3.2.2]nonan-4-yl)pyridin-2-yl]amino]-5-fluoropyrimidin-4-yl]-5-methylspiro[6H-thieno[3,2-c]pyridine-7,1′-cyclopentane]-4-one] |
| ≤ 20 |  | 20 to 200 |  | Cc1c(-c2nc(Nc3ccc(C4CCN(C(C)C)CC4)nn3)ncc2F)sc2c1C(=O)N(C)CC21CC1 [Example 83, 2′-(5-Fluoro-2-((6-(1-isopropylpiperidin-4-yl)pyridazin-3-yl)amino)pyrimidin-4-yl)-3′,5′-dimethyl-5′,6′-dihydro-4′H-spiro[cyclopropane-1,7′-thieno[3,2-c]pyridin]-4′-one] |
